The values below come from article PMC6256357 (Chemical Science, 2018).

The experiment addresses sirtuin 2 (SIRT2) (Homo sapiens, UniProt Q8IXJ6). In words: trypsin-coupled fluorescence-based deacetylase assay. It counts as biochemical.

Chain of sirtuin 2 (SIRT2) (Q8IXJ6 2-389): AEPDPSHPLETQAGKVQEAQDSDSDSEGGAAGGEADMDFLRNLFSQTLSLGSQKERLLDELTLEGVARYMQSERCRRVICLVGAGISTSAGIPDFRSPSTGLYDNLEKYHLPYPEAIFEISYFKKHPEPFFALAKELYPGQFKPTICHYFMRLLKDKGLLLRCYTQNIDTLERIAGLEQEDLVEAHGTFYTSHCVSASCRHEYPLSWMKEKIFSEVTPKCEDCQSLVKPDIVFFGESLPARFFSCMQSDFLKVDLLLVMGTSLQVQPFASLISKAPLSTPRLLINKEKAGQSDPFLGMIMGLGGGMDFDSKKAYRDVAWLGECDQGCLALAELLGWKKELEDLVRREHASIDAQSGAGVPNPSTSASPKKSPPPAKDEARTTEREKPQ

With `NC(=O)c1ccc[n+]([C@@H]2O[C@H](COP(=O)([O-])OP(=O)(O)OC[C@H]3O[C@@H](n4cnc5c(N)ncnc54)[C@H](O)[C@@H]3O)[C@@H](O)[C@H]2O)c1` [NAD^+], the “trypsin-coupled fluorescence-based deacetylase assay” value is on record as “in contrast to NAD^+ that could participate in SIRT2-catalyzed protein deacetylation”.
